Results reported in patent publication US20260159486A1, “BENZO[H]QUINAZOLINE-4-AMINE DERIVATIVES FOR THE TREATMENT OF CANCER” (Redona Therapeutics, Inc., priority 2021, published 2026).

Assays:
[1] = system: MDA-MB-231 cells; test: MDA-MB-231 proliferation assay; format: cell-based; settings: Homo sapiens, MDA-MB-231, 72 h, YO-PRO-1 Iodide readout
Procedure, shortened: (§1)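 Cells seeded at 750 per well, treated next day for 72 h at 37 °C with 0.5% final DMSO. Cell number read by YO-PRO-1 fluorescence after lysis, normalized to DMSO (100%) and time-zero cells (0%). GI50 from 4-parameter logistic fit, maximum constrained to 100%.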

[2] = molecular target: T1, recombinant human CLK3 (Homo sapiens, UniProt P49761); test: CLK3 kinase assay (LANCE Ultra); format: biochemical; settings: CLK3 0.5 nM, ATP 300 μM, 3 hours at 30° C.
T1 construct: purchased Thermo Fisher Scientific PV3826
Procedure, shortened: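 Recombinant human CLK3 (0.5 nM) with ULight-CREBtide (50 nM) and 300 μM ATP, 3 h at 30 °C in kinase buffer; EDTA stop, then Eu-anti-phospho-CREB antibody (2 nM, 1 h RT), TR-FRET read at 665/620 nm. Inhibition normalized to DMSO and no-ATP wells; IC50 from 4-parameter fit, ten 1:3 concentrations in duplicate.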

[3] = system: CAL-51 cells; test: CAL-51 proliferation assay; format: cell-based; settings: Homo sapiens, CAL-51, 72 h, YO-PRO-1 Iodide readout
Procedure, shortened: as §1

T1 sequence (P49761 whole entry): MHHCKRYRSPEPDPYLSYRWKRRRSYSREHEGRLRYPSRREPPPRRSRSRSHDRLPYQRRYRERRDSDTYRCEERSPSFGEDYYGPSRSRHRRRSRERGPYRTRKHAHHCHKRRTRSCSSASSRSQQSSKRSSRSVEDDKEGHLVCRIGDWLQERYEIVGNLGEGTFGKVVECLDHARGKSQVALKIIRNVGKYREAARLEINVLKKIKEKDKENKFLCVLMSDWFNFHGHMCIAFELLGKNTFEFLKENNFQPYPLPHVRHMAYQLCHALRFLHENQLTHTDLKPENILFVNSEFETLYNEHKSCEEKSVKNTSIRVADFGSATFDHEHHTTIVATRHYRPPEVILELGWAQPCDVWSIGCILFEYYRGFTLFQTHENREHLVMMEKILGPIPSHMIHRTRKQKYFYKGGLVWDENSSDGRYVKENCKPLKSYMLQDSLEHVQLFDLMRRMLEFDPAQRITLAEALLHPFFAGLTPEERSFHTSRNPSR

`CSCCN(C)c1c(O[C@H]2CC[C@@H](N)CC2)ccc2c1CC(C)(C)c1c(N)ncnc1-2` [Example 31, 8-(cis-4-aminocyclohexoxy)-N7,5,5-trimethyl-N7-(2-methylsulfanylethyl)-6H-benzo[h]quinazoline-4,7-diamine] was tested, and the GI50 [1] was 100 to 2000 nM, the IC50 [2] was 30 to 100 nM and the GI50 [3] was < 100 nM.

Work on `Nc1ncnc2c1C1(CCCC1)Cc1c-2ccc(O[C@H]2CC[C@H](N)CC2)c1NCCO` [Example 60, 2-[[4-amino-8-(4-trans-aminocyclohexoxy)spiro[6H-benzo[h]quinazoline-5,1′-cyclopentane]-7-yl]amino]ethanol] yielded a GI50 [1] of 100 to 2000 nM, an IC50 [2] of 30 to 100 nM and a GI50 [3] of 100 to 2000 nM.

`CN(CC1CCOCC1)c1c(O[C@H]2CC[C@@H](N)CC2)ccc2c1CC(C)(C)c1c(N)ncnc1-2` [Example 29, 8-(cis-4-aminocyclohexoxy)-N7,5,5-trimethyl-N7-(tetrahydropyran-4-ylmethyl)-6H-benzo[h]quinazoline-4,7-diamine] showed a GI50 [1] of 100 to 2000 nM, an IC50 [2] of 101 to 1000 nM and a GI50 [3] of 100 to 2000 nM.

In the case of `COc1ccc2c(c1NC[C@@H]1CNC(=O)O1)CC(C)(C)c1c(N)ncnc1-2` [Example 82, (5R)-5-[[(4-amino-8-methoxy-5,5-dimethyl-6H-benzo[h]quinazolin-7-yl)amino]methyl]oxazolidin-2-one], the GI50 [1] is reported as 100 to 2000 nM, the IC50 [2] is reported as < 30 nM and the GI50 [3] is reported as < 100 nM.

`CC(CCO)c1c(O[C@H]2CC[C@H](N)CC2)ccc2c1CC(C)(C)c1c(N)ncnc1-2` (stereo partly drawn) [Example 92, 3-[4-amino-8-(trans-4-aminocyclohexoxy)-5,5-dimethyl-6H-benzo[h]quinazolin-7-yl]butan-1-ol] was tested, and the GI50 [1] was < 100 nM, the IC50 [2] was < 30 nM and the GI50 [3] was < 100 nM.

For `CN(C(=O)CO)c1c(O[C@H]2CC[C@H](N)CC2)ccc2c1CC(C)(C)c1c(N)ncnc1-2` [Example 41, N-[4-amino-8-(trans-4-aminocyclohexoxy)-5,5-dimethyl-6H-benzo[h]quinazolin-7-yl]-2-hydroxy-N-methyl-acetamide], the GI50 [1] was > 2000 nM, the IC50 [2] was 101 to 1000 nM and the GI50 [3] was > 2000 nM.

`CN(C[C@@H]1CNC(=O)O1)c1c(Br)ccc2c1CC(C)(C)c1c(N)ncnc1-2` [Example 126, (5S)-5-[[(4-amino-8-bromo-5,5-dimethyl-6H-benzo[h]quinazolin-7-yl)-methyl-amino]methyl]oxazolidin-2-one] was tested, and the GI50 [1] was 100 to 2000 nM, the IC50 [2] was 30 to 100 nM and the GI50 [3] was 100 to 2000 nM.

With `CN(Cc1cccnc1)c1c(O[C@H]2CC[C@H](N)CC2)ccc2c1CC(C)(C)c1c(N)ncnc1-2` [Example 107, 8-(trans-4-aminocyclohexoxy)-N7,5,5-trimethyl-N7-(3-pyridylmethyl)-6H-benzo[h]quinazoline-4,7-diamine] the GI50 [1] was 100 to 2000 nM, the IC50 [2] was 101 to 1000 nM and the GI50 [3] was 100 to 2000 nM.

In the case of `CC1(C)Cc2c(ccc(O[C@H]3CC[C@H](N)CC3)c2N)-c2ncnc(N)c21` [Example 5, 8-(trans-4-aminocyclohexoxy)-5,5-dimethyl-6H-benzo[h]quinazoline-4,7-diamine], the GI50 [1] is reported as 100 to 2000 nM, the IC50 [2] is reported as < 30 nM and the GI50 [3] is reported as 100 to 2000 nM.

`COCCN[C@H]1CC[C@H](Oc2ccc3c(c2N(C)CCC#N)CC(C)(C)c2c(N)ncnc2-3)CC1` [Example 53, 3-[[4-amino-8-[trans-4-(2-methoxyethylamino)cyclohexoxy]-5,5-dimethyl-6H-benzo[h]quinazolin-7-yl]-methyl-amino]propanenitrile] was tested, and the GI50 [1] was < 100 nM, the IC50 [2] was < 30 nM and the GI50 [3] was < 100 nM.

For `CN[C@H]1CC[C@H](Oc2ccc3c(c2N(C)CCC#N)CC(C)(C)c2c(N)ncnc2-3)CC1` [Example 99, 3-[[4-amino-5,5-dimethyl-8-[trans-4-(methylamino)cyclohexoxy]-6H-benzo[h]quinazolin-7-yl]-methyl-amino]propanenitrile], the GI50 [1] was < 100 nM, the IC50 [2] was < 30 nM and the GI50 [3] was < 100 nM.
